These results are taken from patent EP0852148B1, “Products having anti-microbial activity” (SION MICROTEC LTD., priority 1997, dated 1998).

Structures can show the parent of a compound that is named as a salt. Where two headings read alike, the source gives them in different places.

In one data set the test system is Escherichia coli (EC). Put plainly: Inhibition zone on bacterial lawn on agar plate, daily sequential transfer of sample. The data set is classed as cell-based. The protocol: (§1) The antimicrobial activity of the product was tested on lawns of several bacteria: Staphylococcus aureus (SA), S. epidermidis (SE), Escherichia coli (EC) and Pseudonomas aeruginosa (PA), inoculated on agar plates, by placing a sample of about 2 cm^2 on the surface of the plate, and measurement of the inhibition zone after growth of the bacteria for 18 hours at 37°C. After 24 hours, the sample was passed sequentially to another inoculated agar plate and the inhibition zone measured. This daily transfer procedure continued up to the loss of growth-inhibiting activity.
(§2) The data set forth in the Tables herein is presented as follows: a = no inhibition b = partial growth inhibition under matrix c = total growth inhibition under matrix d = growth inhibition beyond the matrix, but at less than 1 mm E x-y = growth inhibition in mm; x = minimum distance; y = maximum distance.

The subject of another data set is S. epidermidis (SE). The data set is described as above. The data set is classed as cell-based. The protocol:
as §1, §2

The subject of data set [1] is Pseudonomas aeruginosa (PA). The data set is described as above. In kind it is cell-based. The protocol: as §1, with “A matrix made of cotton gauze 75 mm wide, in accordance with the British Pharmacopoeia, was soaked in 0.5% chlorohexidine gluconate (CHXG) aqueous solution at 25°C and dried by forced hot air at 60°C in a continuous process. The” for “The”
as §2

In data set [2] the test system is Staphylococcus aureus (SA). The data set is described as above. In kind it is cell-based. The note with it: for Growth Inhibition SA: procedure of Example 1 (cotton gauze). The protocol: as §1, with “A matrix made of cotton gauze 75 mm wide, in accordance with the British Pharmacopoeia, was soaked in 0.5% chlorohexidine gluconate (CHXG) aqueous solution at 25°C and dried by forced hot air at 60°C in a continuous process. The” for “The”
as §2

The subject of data set [3] is Staphylococcus aureus (SA). Described as above. In kind it is cell-based.
The subject of data set [4] is human immunodeficiency virus type I. Particulars: aqueous solution, in 15 seconds; cited from earlier work.
The conditions of data set [5]: in vivo; cited from earlier work.
Data set [6] deals with Staphylococcus aureus (SA). Nature of the data set: Inhibition zone on bacterial lawn on agar plate, daily sequential transfer of sample. Particulars: procedure of Example 1 (cotton gauze). The data set is classed as cell-based. The protocol:
A matrix made of cotton gauze 75 mm wide, in accordance with the British Pharmacopoeia, was soaked in 0.5% chlorohexidine gluconate (CHXG) aqueous solution at 25°C and dried by forced hot air at 60°C in a continuous process. The antimicrobial activity of the product was tested on lawns of several bacteria: Staphylococcus aureus (SA), S. epidermidis (SE), Escherichia coli (EC) and Pseudonomas aeruginosa (PA), inoculated on agar plates, by placing a sample of about 2 cm^2 on the surface of the plate, and measurement of the inhibition zone after growth of the bacteria for 18 hours at 37°C. After 24 hours, the sample was passed sequentially to another inoculated agar plate and the inhibition zone measured. This daily transfer procedure continued up to the loss of growth-inhibiting activity. The data set forth in the Tables herein is presented as follows: a = no inhibition b = partial growth inhibition under matrix c = total growth inhibition under matrix d = growth inhibition beyond the matrix, but at less than 1 mm E x-y = growth inhibition in mm; x = minimum distance; y = maximum distance.

Setting [7] is: Matrix Cellular triacetate, CHXH 0.1% or CHXG 1.0%.
[8] abbreviates: Matrix Nylon, CHXH 0.1% or CHXG 1.0%.
The mark [9] stands for this setting: Matrix Polyethylene, CHXH 0.1% or CHXG 1.0%.
Where [10] appears, read: Matrix Polypropylene, CHXH 0.1% or CHXG 1.0%.
Where [11] appears, read: non-woven matrix (polyethylene, viscose and cotton), CHXG Concentration 2 %.
The mark [12] stands for this setting: non-woven matrix (polyethylene, viscose and cotton), CHXG Concentration 5 %.
The mark [13] stands for this setting: Matrix Nylon, CHXH 0.1% or CHXG 1.0%, hydrochloride.
Setting [14] is: Matrix Polyethylene, CHXH 0.1% or CHXG 1.0%, hydrochloride.
Where [15] appears, read: Matrix Polypropylene, CHXH 0.1% or CHXG 1.0%, hydrochloride.

Consider `N=C(NCCCCCCNC(=N)NC(=N)Nc1ccc(Cl)cc1)NC(=N)Nc1ccc(Cl)cc1` [CHXG, chlorohexidine gluconate], for which the “Microorganism Growth Inhibition EC” value with Escherichia coli (EC) (setting [7]) is “E 3-4 mm”; in the data set with Escherichia coli (EC) (setting [8]) it was “E 2-4 mm”; in the data set on Escherichia coli (EC) (setting [9]), “E 2-3 mm”; in the data set with Escherichia coli (EC) (setting [10]), “E 2-4 mm”; in the data set on Escherichia coli (EC) (setting [11]), “E 2-3 mm”; in the data set on Escherichia coli (EC) (setting [12]) it was “E 3-4 mm”. Also, the “Microorganism Growth Inhibition SE” value is given as “E 4 mm” in the data set on S. epidermidis (SE) (setting [7]); “E 3 mm” in the data set on S. epidermidis (SE) (setting [9]); “E 2-3 mm” in the data set with S. epidermidis (SE) (setting [10]); “E 3-5 mm” with S. epidermidis (SE) (setting [11]); “E 4-5 mm” in the data set with S. epidermidis (SE) (setting [12]). Further, the “Microorganism Growth Inhibition PA” value in data set [1] (setting [7]) was “E 1 mm”; in data set [1] (setting [8]) it was “d (growth inhibition beyond the matrix, but at less than 1 mm)”; in data set [1] (setting [9]), “E 1 mm”; in data set [1] (setting [11]), “d (growth inhibition beyond the matrix, but at less than 1 mm)”; in data set [1] (setting [12]) it was “E 1-2 mm”. In addition, the “Growth Inhibition SA” value in data set [2] (Day 1) is on record as “E 4-5 mm”; in data set [2] (Day 2), “E 3-4 mm”; in data set [2] (Day 3) it was “E 2-3 mm”; in data set [2] (Day 4) it was “E 2-3 mm”. For the same compound, the “Microorganism Growth Inhibition SA” value in data set [3] (setting [7]) is “E 4-5 mm”; in data set [3] (setting [8]), “E 3-5 mm”; in data set [3] (setting [9]), “E 3-5 mm”; in data set [3] (setting [10]), “E 2-5 mm”; in data set [3] (setting [11]), “E 5-7 mm”; in data set [3] (setting [12]) it was “E 4-5 mm”.

For the compound `CCCCCCCCCCCCCCCC[n+]1ccccc1.[Cl-]` [Example 844, Cetyl piridinium chloride], the “Growth Inhibition SA” value in data set [2] (Day 1) was “E 3-4 mm”; in data set [2] (Day 2) it was “E 5-6 mm”; in data set [2] (Day 3) it was “E 3-4 mm”; in data set [2] (Day 4) it was “E 2-4 mm”.

For the compound `[H]/N=C(\N/C(=N/[H])NCCCCCCNC(=N)NC(=N)Nc1ccc(Cl)cc1)Nc1ccc(Cl)cc1` [chlorhexidine], the “inactivation of human immunodeficiency virus type I” value in data set [4] was 100%.

In the case of `Clc1nc(Cl)nc(Cl)n1` [cyanuric chloric linking group, cyanuric chloride], in data set [5], the LD50 is 18 mg/kg.

Turning to “Septabicdidecyl dimethyl ammonium bromide [Example 868]”, the “Growth Inhibition SA” value in data set [2] (Day 1) is “E 5-6 mm”; in data set [2] (Day 2), “E 5-6 mm”; in data set [2] (Day 3), “E 4-5 mm”; in data set [2] (Day 4), “E 3-4 mm”.

For `CCCCCCCCCCCCCCCC[N+](C)(C)Cc1ccccc1.[Cl-]` [Example 861, Benzyl dimethyl hexocylammonium chloride], the “Growth Inhibition SA” value was “E 3-5 mm” in data set [2] (Day 1), “E 3-4 mm” in data set [2] (Day 2), “E 3-4 mm” in data set [2] (Day 3) and “E 2-3 mm” in data set [2] (Day 4).

In the case of `N=C(NCCCCCCNC(=N)NC(=N)Nc1ccc(Cl)cc1)NC(=N)Nc1ccc(Cl)cc1` [CHXH, chlorohexidine hydrochloride], the “Microorganism Growth Inhibition EC” value in the data set on Escherichia coli (EC) is “E 2-4 mm”; with Escherichia coli (EC) (setting [13]), “E 2-3 mm”; in the data set with Escherichia coli (EC) (setting [14]), “E 1-3 mm”; with Escherichia coli (EC) (setting [15]), “E 1-3 mm”. For the same compound, the “Microorganism Growth Inhibition SE” value with S. epidermidis (SE) is recorded as “E 3-4 mm”; with S. epidermidis (SE) (setting [8]), “E 2-3 mm”; with S. epidermidis (SE) (setting [14]) it was “E 2 mm”; with S. epidermidis (SE) (setting [15]) it was “E 1-2 mm”. Further, the “Microorganism Growth Inhibition PA” value in data set [1] is recorded as “E 1-2 mm”. Moreover, the “Microorganism Growth Inhibition SA” value in data set [2] was “E 5-6 mm”; in data set [3] (setting [13]) it was “E 3-4 mm”; in data set [3] (setting [14]) it was “E 3-4 mm”; in data set [3] (setting [15]), “E 2-4 mm”.

Turning to Bacitracin [Example 846], the “Growth Inhibition SA” value in data set [6] (Day 1) is listed as “E 4-6 mm”; in data set [6] (Day 2), “E 1-3 mm”.
